Measurements taken from publication PMC9895061 (Signal Transduction and Targeted Therapy, 2023).
Read-outs that look alike come from different tables or passages of the source.

Experiments:
[1] = molecular target: T1, PRDX4 (Homo sapiens, UniProt Q13162); assay: Trx-TrxR-NADPH coupling peroxiredoxin activity assay, PRDX4; format: biochemical; conditions: for inhibition of the peroxidase activity of PRDX4 (in words): recombinant PRDX4
T1 sequence (Q13162 38-271): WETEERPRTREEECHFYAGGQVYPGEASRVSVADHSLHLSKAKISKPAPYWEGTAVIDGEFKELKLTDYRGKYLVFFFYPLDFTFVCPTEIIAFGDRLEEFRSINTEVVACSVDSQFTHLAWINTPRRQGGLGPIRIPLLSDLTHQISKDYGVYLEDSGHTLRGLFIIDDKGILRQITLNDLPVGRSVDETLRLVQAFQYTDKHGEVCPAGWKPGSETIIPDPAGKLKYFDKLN

[2] = molecular target: T2, PRDX6 (Homo sapiens, UniProt P30041); assay: Trx-TrxR-NADPH coupling peroxiredoxin activity assay, PRDX6; format: biochemical
T2 sequence (P30041 1-224): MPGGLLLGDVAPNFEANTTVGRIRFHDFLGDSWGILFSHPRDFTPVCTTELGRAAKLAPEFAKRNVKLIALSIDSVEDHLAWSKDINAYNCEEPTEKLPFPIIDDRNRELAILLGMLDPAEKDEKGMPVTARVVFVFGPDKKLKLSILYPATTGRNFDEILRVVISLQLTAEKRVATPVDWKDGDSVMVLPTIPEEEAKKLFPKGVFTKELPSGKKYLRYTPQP
Description: The assay was conducted in 96-well plates as previously described.[47] […] Then, the mixture solution containing 0.3 µM yeast Trx, 0.15 µM yeast TrxR and 200 µM NADPH was added to assay wells. The reaction was initiated with 100 µM hydrogen peroxide (H2O2) and detected with Thermo Multiskan FC at 340 nm. For PRDX1-6, the work concentration is 0.6 µM, 1.5 µM, 1 µM, 3 µM, 0.5 µM, 10 µM respectively. The initial reaction’s slope of assay wells containing mixture solution and H2O2 without PRDXs and compounds (S100%) were considered as 100 % inhibition of PRDXs’ peroxidase activity. The initial reaction’s slope of assay wells containing mixture solution, H2O2 and PRDXs without compounds (S0%) were considered as 0% inhibition of PRDXs’ peroxidase activity. […] The inhibition rate (%) was calculated from the following equations: 100 – (Scompound − S100%)/(S0% − S100%) × 100. […] Data were analyzed using GraphPad (version 8.0).

[3] = molecular target: T3, PRDX5 (Homo sapiens, UniProt P30044); assay: Trx-TrxR-NADPH coupling peroxiredoxin activity assay, PRDX5; format: biochemical
T3 sequence (P30044 53-214): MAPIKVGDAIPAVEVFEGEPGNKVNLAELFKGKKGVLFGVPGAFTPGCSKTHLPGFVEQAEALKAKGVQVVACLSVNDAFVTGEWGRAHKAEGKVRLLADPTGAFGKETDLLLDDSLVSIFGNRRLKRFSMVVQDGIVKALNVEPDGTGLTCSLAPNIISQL

[4] = test system: NCM460 cells; assay: Proliferation IC50 in NCM460; format: cell-based; conditions: Homo sapiens, NCM460, 24 h, read-out: IC50 of proliferation, NCM460
[5] = test system: nude mice; assay: Acute toxicity test (percent survival within 2 weeks); format: in vivo; conditions: for Survival number, female (n=4) / Survival number, male (n=4) / Survival rate, female (n=4) / Survival rate, male (n=4): within 2 weeks
Description: For acute toxicity test, Nude mice were randomly divided into five groups (four female mice and four male mice in each group). […] The percent survival within 2 weeks was recorded in Supplementary Table 2 and survival curve.

[6] = test system: HCT116 cells; assay: CCK-8 proliferation assay, HCT116; format: cell-based; conditions: Homo sapiens, HCT-116; 24 h treatment
Description: (§1) SW620 or HCT116 cells were seeded into 96-well plate overnight at 5000 cells per well or 4000 cells per well respectively. […] Cell numbers were assessed using the CCK-8 reagent at OD 450. The IC50 values were calculated by fitting the data points with the dose-response function in GraphPad.

[7] = test system: NCM460 cells; assay: ROS measurement by DCFH-DA staining and flow cytometry, NCM460; format: cell-based, human; conditions: 2 μM, 24 h
Description: […]. DCFH-DA was deacetylated by intracellular esterase to a non-fluorescent compound, which was later oxidized by intracellular ROS to the fluorescent DCF. DCF fluorescence was detected using flow cytometer and data was analyzed using FlowJo software (version 10.4).
b ROS measurement of NCM460 cells with compounds treatment. […].

[8] = test system: gPRDX1 SW620 cells; assay: Proliferation IC50 in PRDX1 knockdown (gPRDX1) SW620 cells; format: cell-based; conditions: Homo sapiens, SW-620, 24 h, read-out: IC50 against the proliferation of PRDX1 knockdown (gPRDX1) SW620 cells
Description: To generate PRDX1 knockdown cell lines, gRNA targeting […] was cloned into the vector pHBLV-U6-gRNA-EF1-CAS9-PURO from HanBio. The gRNA, psPAX2, and pMD2·G plasmids were mixed and co-transfected into HEK293T cells using Lipofectamine 2000 (Thermo Fisher Scientific). Medium with lentiviruses was collected and filtered through 0.45 μm filters at 48 h after transfection. Lentiviruses was used to infect the indicated cells with 8 μg/mL polybrene (Sigma-Aldrich) for 2 days. The infected cells were selected in medium containing 2 μg/mL puromycin (Sigma-Aldrich) for 3 days, and PRDX1 protein expression level were examined by western blot.
as §1

[9] = test system: SW620 cells; assay: Cell viability by trypan blue staining, SW620; conditions: for viability at 0.5 µM: Homo sapiens, SW-620, 24 h, read-out: cells viability, SW620
Description: (§2) Total cell number and viability were counted with trypan blue staining. To measure apoptosis, cells were harvested and followed by flow cytometric analysis using the Annexin V-FITC / PI apoptosis detection kit according to the manufacturer’s protocol. Cell apoptosis was analyzed by FlowJo software.
(§3) e, f Cell viability were measured by trypan-blue staining.

[10] = molecular target: T4, PRDX2 (Homo sapiens, UniProt P32119); assay: Trx-TrxR-NADPH coupling peroxiredoxin activity assay, PRDX2; format: biochemical
T4 sequence (P32119 1-198): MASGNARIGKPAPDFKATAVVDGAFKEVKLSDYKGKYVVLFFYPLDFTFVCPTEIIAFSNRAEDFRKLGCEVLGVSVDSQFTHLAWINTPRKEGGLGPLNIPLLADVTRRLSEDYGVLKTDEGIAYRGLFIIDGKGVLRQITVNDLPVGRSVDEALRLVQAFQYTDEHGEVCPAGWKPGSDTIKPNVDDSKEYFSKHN

[11] = test system: HCT116 cells; assay: Cell viability by trypan blue staining, HCT116; conditions: for viability at 0.5 µM: Homo sapiens, HCT-116, 24 h, read-out: cells viability, HCT116
Description: as §2, §3

[12] = Body weight of xenograft-bearing nude mice; conditions: 2 mg/kg, day 12, average of gNS and gPRDX1 groups

| SMILES | inhibition of the peroxidase activity of PRDX4 (in words) [1] | IC50 [4] [µM] | Survival number, female (n=4) ([5]; 10 mg/kg intraperitoneally) | Survival number, male (n=4) ([5]; 10 mg/kg intraperitoneally) | Survival rate, female (n=4) ([5]; 10 mg/kg intraperitoneally) [%] | Survival rate, male (n=4) ([5]; 10 mg/kg intraperitoneally) [%] | Survival number, female (n=4) ([5]; 20 mg/kg intraperitoneally) | Survival number, male (n=4) ([5]; 20 mg/kg intraperitoneally) | Survival rate, female (n=4) ([5]; 20 mg/kg intraperitoneally) [%] | Survival rate, male (n=4) ([5]; 20 mg/kg intraperitoneally) [%] | IC50 [6] [µM] | intracellular ROS positive rate, NCM460 [7] [%] | IC50 [8] [µM] | viability at 0.5 µM [9] [%] | viability at 0.5 µM [11] [%] | body weight loss as compared to DMSO control [12] [%] | further results |
| --- | --- | --- | --- | --- | --- | --- | --- | --- | --- | --- | --- | --- | --- | --- | --- | --- | --- |
| COC(=O)[C@H](C)NC(=O)N[C@]1(C)CC[C@]2(C)CC[C@]3(C)C4=CC=C5C(=CC(=O)C(O)=C5C)[C@]4(C)CC[C@@]3(C)[C@@H]2C1 [19-048, Methyl (((2R,4aS,6aS,12bR,14aS,14bR)-10-hydroxy-2,4a,6a,9,12b,14a-hexamethyl-11-oxo-1,2,3,4,4a,5,6,6a,11,12b,13,14,14a,14b-tetradecahydropicen-2-yl)carbamoyl)-L-alaninate] | no obvious inhibition | 2.23 | 4 | 4 | 100 | 100 | 0 | 4 | 0 | 100 | 0.816 | 29.13 | 0.431 ± 0.00914 | ~80 | ~80 | 7.3 | IC50 ([1]; recombinant PRDX4, 1.5 h incubation, read-out: IC50 against the peroxidase activity of PRDX4): > 100 µM; IC50 [2]: > 100 µM; inhibition of the peroxidase activity of PRDX6 (in words) ([2]; recombinant PRDX6): no obvious inhibition; inhibition of the peroxidase activity of PRDX5 (in words) ([3]; recombinant PRDX5): no obvious inhibition; IC50 ([3]; recombinant PRDX5, 1.5 h incubation, mean ± SEM, triplicate, read-out: IC50 against the peroxidase activity of PRDX5): > 100 µM; survival, all mice (male and female) ([5]; 10 mg/kg, within two weeks): 100%; cell viability at high concentrations, SW620 (in words) ([9]; 1, 2 μM, 24 h, trypan blue): significantly decreased cell viability; inhibition of the peroxidase activity of PRDX2 (in words) ([10]; recombinant PRDX2): no obvious inhibition; IC50 ([10]; recombinant PRDX2, 1.5 h incubation, mean ± SEM, triplicate, read-out: IC50 against the peroxidase activity of PRDX2): > 100 µM; cell viability at high concentrations, HCT116 (in words) ([11]; 1, 2 μM, 24 h, trypan blue): significantly decreased cell viability |
| CC1=C(O)C(=O)C=C2C1=CC=C1[C@@]2(C)CC[C@@]2(C)[C@@H]3C[C@](C)(C(=O)O)CC[C@]3(C)CC[C@]12C [Celastrol, reference compound] | no obvious inhibitory effect | 2.66 | 0 | 1 | 0 | 25 | 0 | 0 | 0 | 0 | 0.894 | 26.5 | 0.494 ± 0.0108 | ~80 | ~80 | 11.2 | IC50 [1]: > 100 µM; IC50 ([2]; recombinant PRDX6, 1.5 h incubation, mean ± SEM, triplicate, read-out: IC50 against the peroxidase activity of PRDX6): 27.3 ± 0.39 µM; IC50 [3]: 2.3 ± 0.13 µM; survival, all mice (male and female), in words ([5]; 20 mg/kg, within two weeks): All the mice died; IC50 [10]: 3.79 ± 0.26 µM |
